Experimental data reported in paper PMC8485325, “Penetrating the Blood-Brain Barrier with New Peptide–Porphyrin Conjugates Having anti-HIV Activity” (Bioconjugate Chemistry, 2021).
Read-outs that look alike come from different tables or passages of the source. Ends that are not written are not given here.

Experiments:
bEnd.3 cell monolayers [1] = tested on: bEnd.3 cell monolayers
Experimental: (§1) Figure 4 PPCs translocation across a bEnd.3 in vitro BBB model. (A) bEnd.3 in vitro BBB model transwell system. The insert, or apex, corresponds to the blood side, while the base (bottom chamber) corresponds to the brain side. (B) After formation of a monolayer, 10 μM of each conjugate was added to the apical side of the tissue culture inserts. After incubation for 24 h, samples from the basolateral side were collected, and the percentage of translocation of each conjugate (black) was calculated. FD4 permeability (gray) was measured to determine monolayer integrity post-PPCs translocation.
After 24 h incubation with conjugates, an in vitro integrity assay was performed.[19] Briefly, cells were washed twice with PBS and once with DMEM medium without phenol red. Then, previously diluted 4 kDa fluorescein isothiocyanate-dextran (FD4) (Sigma-Aldrich, Spain) in DMEM without phenol red to an absorbance of 0.1 was added to the apical side and incubated for 2 h. Samples were collected from the apical and basolateral side, and fluorescence intensity was measured with λext = 493 nm and λem = 520 nm, using a Varioskan Lux plate reader. The integrity of the barrier was determined as follows: [drawing 2] 2 where Fi is the recovered fluorescence intensity, Fcells is the recovered fluorescence intensity from cells without FD4 incubation, FFD4 is the fluorescence intensity of total FD4 initially added to the transwell apical side, and FMedium is the fluorescence intensity of DMEM medium without phenol red.

bEnd.3 cell monolayers [2] = assay: In vitro BBB translocation assay (bEnd.3 transwell model)
Excerpt: Assessment of PPC efficacy in BBB translocation was done in a transwell setup (Figure 4A) using bEnd.3 cell monolayers.[44] The bEnd.3 in vitro BBB model consists of a monolayer of cells expressing a range of essential BBB transporters, also bearing the low permeability characteristic of the BBB, suitable for this study.[44]−[46]
as §1
An in vitro BBB model consisting of endothelial cells growing on the apical side of a porous membrane was used.[46] bEnd.3 cells (ATTCC-CRL2299) were cultured as a monolayer on T-flasks in DMEM supplemented with 10% fetal bovine serum (FBS), 1% penicillin/streptomycin. Cells were grown in a humidified atmosphere of 5% CO2 at 37 °C (MCO-18AIC (UV), Sanyo, Japan) with the medium changed every other day. Cells were allowed to grow until confluence in a culture T-flask, and then carefully harvested with trypsin-EDTA and seeded (3500 cells/well) onto fibronectin-coated tissue culture 24-well inserts (transparent polyester membrane with 1.0 μm pores) (BD Falcon, USA). The medium was changed every other day for 10 days, after which cells were washed twice with 1× PBS and once with DMEM medium without phenol red. Next, conjugates diluted in DMEM without phenol red to a final concentration of 10 μM were added to the apical side of the in vitro BBB model (Figure 4A). Experiments were performed on different days using independently grown cell cultures.
The translocation of conjugates was determined by fluorescence intensity (λexc = 380 nm and λem = 625 nm for MP conjugates, and λexc = 380 nm and λem = 675 nm for PP conjugates). P3-CF and P5-CF, peptides labeled with 5(6)-Carboxyfluorescein (CF), were used as positive translocation controls (λexc = 492 nm and λem = 517 nm). After 24 h incubation, samples from the apical and basolateral side were collected and analyzed. Fluorescence was measured using a Varioskan Lux plate reader (Thermo Scientific, MA, USA). The percentage (%) of translocation was calculated using the following equation: [drawing 1] 1 where Fi is the recovered fluorescence intensity, Fcells is the recovered fluorescence intensity from cells without the conjugate, and Fconjugate is the fluorescence intensity of total peptide initially added to the transwell apical side.

HIV-1NL4-3 = assay: In vitro inhibition of HIV-1NL4-3 infection of TZM-bl cells (luciferase reporter); assay type: cell-based
Experimental: Viral supernatants harvested from pNL4-3-transfected HEK293T cells were titered through the Reed-Muench method[56] based on HIV-1NL4–3 infectivity against TZM-bl cell cultures. TZM-bl cells were seeded at 2 × 10^4 cells/well in tissue culture-treated 96-well microplates from Corning (Corning, NY, USA), and incubated for 24 h. Cells were then incubated with 2-fold serial dilutions of viral supernatants for 3 h, after which the supernatant was replaced with fresh complete medium. After 45 h, TZM-bl cell infection was quantified through luciferase reporter-gene expression levels, under the control of an HIV-1 TAT-dependent LTR promoter[57] using the Luc-Screen luciferase chemiluminescence detection system. Luminescence was measured in an Infinite M200 microplate reader from Tecan (Männedorf, Switzerland). […] Titration was performed with at least four replicates to allow accurate estimation of TCID50 in viral supernatants.
The inhibitory activity of conjugates on HIV-1NL4–3 entry into TZM-bl cells was evaluated as previously described.[58] TZM-bl cells were seeded at 2 × 10^4 cells/well in tissue culture-treated 96-well microplates and incubated for 24 h. HIV-1NL4–3 viral supernatants (100 or 10 TCID50/well) were then incubated for 1 h with 2-fold serial dilutions of either nonconjugated peptide and porphyrins or conjugates, after which the infection mixture was added to TZM-bl cells. Untreated cells (in the absence of peptide–porphyrin conjugate) were used as control. Virions were incubated with cells for 3 h, after which cells were washed to remove unbound virions and new medium was added. After 45 h, infection was quantified by the Luc-Screen chemiluminescence assay. Measurements were performed in an Infinite M200 microplate reader. […] At least three independent experiments were performed for each assay.

[3] = Cell viability assay (CellTiter-Blue); assay type: cell-based, murine; details: for CC50 at 24 h: mouse
Experimental: (§2) bEnd.3 cells were plated in fibronectin precoated 96-well flat-bottom clear black polystyrene plate (Corning, New York, USA) as previously described. Cells were then cultured in complete medium at 37 °C in a 5% CO2 atmosphere, with medium replaced every 2 days. […] Viability was evaluated by the CellTiter-Blue assay (Promega, Wisconsin, USA), based on resazurin reduction into highly fluorescent resorufin by metabolically active cells. By distinguishing metabolic from nonmetabolic cells, cytotoxicity can be indirectly determined. After incubation, cells were washed with PBS, pH 7.4, and 15 μL of CellTiterBlue reagent in 100 μL of complete medium was added to the cells and incubated for 1.5 h at 37 °C in 5% CO2. Fluorescence was measured at 590 nm, with excitation at 560 nm, using an Infinite F200 plate reader (Tecan, Switzerland). Complete medium and medium containing 0.25% Triton X-100 were used as positive and negative controls (100% and 0% viability), respectively. Cell viability (%) was determined using the following equation: [drawing 5] 5 where […] is the fluorescence emission of conjugate-treated cells, Fnontreated is the fluorescence emission of the control nontreated cells, and Fblank is the fluorescent emission of CellTiter reagent in complete medium without cells.

human erythrocytes = assay: Hemolysis assay; assay type: cell-based
Experimental: Plates were incubated for 1 h at 37 °C with 100 rpm stirring, then centrifuged for 5 min at 4000 rpm, 4 °C, and supernatants were transferred to a 96-well flat-bottom polystyrene plate (Corning). Hemolysis was assessed by hemoglobin (Hb) release, measured by absorbance at 415 nm in a Varioskan LUXTM microplate reader (Thermo Fisher Scientific, Inc.). As porphyrin and Hb spectra are partially overlapping, to exclude porphyrin interference in Hb quantification a blank reading of each PPC (no hRBCs, TN buffer +1% DMSO) was subtracted from each measurement. TN buffer (+1% DMSO, no conjugate) and hRBCs with 1% Triton X-100 were used as negative and positive controls, respectively. Hemolysis (%) was determined using the following equation: [drawing 6] 6 where Abstreated is the absorbance of hRBC treated with the conjugates, Absconjugate is the absorbance from each conjugate concentration without hRBCs, AbsTriton is the absorbance of Triton X-100 treated hRBCs, and Absbuffer is the absorbance of TN buffer alone. HC50 values were determined by GraphPad Prism 8 software using a log(inhibitor) vs normalized response (variable slope). Experiments were performed using 3 different blood donors.

bEnd.3 cells = assay: Cell viability assay (CellTiter-Blue); assay type: cell-based, murine
Experimental: as §2

TZM-bl cells = assay type: cell-based
Experimental: TZM-bl Cell Viability Studies
The cytotoxic effects of each PPC on TZM-bl cell cultures were assessed to ensure that HIV inhibition was a result of the compounds effect on the virus and not on the host cells used in the assay. A resazurin reduction fluorometric assay was performed. Resazurin, the active compound in alamarBlue®, is a blue dye that can be reduced to a pink fluorescent intermediate, resorufin, as a result of cell metabolic activity.6 TZM-bl cells were seeded at 2x10^4 cells/well in tissue culture-treated 96-well microplates and incubated for 24 h. Cells were then incubated with serial dilutions (2-fold) of single peptide and porphyrins, or PPC, for 3 h, after which the mixture was replaced with fresh complete medium. Untreated cells (in the absence of peptide-porphyrin combinations) were used as a control. After 42 h, media was replaced with alamarBlue® reagent and incubated for an additional 3 h. Resazurin reduction was quantified by resorufin fluorescent emission intensity, measured in an Infinite M200 microplate reader. Fluorescence emission intensity was collected at 590 nm, using a fixed λ exc of 560 nm. Excitation and emission slits were 9 and 20 nm, respectively. Cell viability was calculated through the following formalism: […]
where I EI corresponds to the resorufin fluorescence emission intensity in the presence of EIs or combination, I control to the fluorescence emission intensity in the absence of EIs and I background to the background fluorescence emission from the non-reduced […]
P5, P4-MP, MP-L-P3 and P4-L-M - are presented here.
TZM-bl cell viability on the concentration range tested.
(1 picture or pasted object on this page, not shown here)
Figure S7. PPCs cytotoxic effects against TZM-bl cells. A resazurin reduction fluorometric assay, dependent on the cell metabolic activity, was used. Cell viability, normalized to the control in the absence of PPC, was measured against three concentrations of each individual PPC: MP-P3 (black), MP-P5 (white), P4-MP (red), MP-L-P3 (blue) and P4-L-MP (green).

Molecule: O=C(O)CN(CCOCCOCCN(CC(=O)O)CC(=O)O)CC(=O)O [EGTA, reference compound]
- % Base (RFI), FD4 Permeability (monolayer integrity post-translocation) (bEnd.3 cell monolayers [1]): 26.8%

Molecule: CCC1=C(C)c2cc3[nH]c(cc4nc(cc5[nH]c(cc1n2)c(C)c5CCC(=O)O)C(CCC(=O)O)=C4C)c(C)c3CC [MP, mesoporphyrin IX, reference compound]
- BBB translocation (in words) (bEnd.3 cell monolayers [2]; bEnd.3 monolayer in vitro model): translocated the monolayer
- IC50 (HIV-1NL4-3; Human immunodeficiency virus 1, 100 TCDI50 per well, TZM-bl cells, no-light, read-out: IC50 HIV inhibition, 100 TCDI50): > 50 µM
- CC50 at 24 h ([3]; bEnd.3 cells, 24 h, 6.25–50 μM range): > 50 µM
- HC50: 50% lytic concentration for human erythrocytes (human erythrocytes; 1 h at 37 °C, 0.1–50 μM range): >50 µM

Molecule: C=CC1=C(C)c2cc3[nH]c(cc4nc(cc5[nH]c(cc1n2)c(C)c5CCC(=O)O)C(CCC(=O)O)=C4C)c(C)c3C=C [PP, protoporphyrin IX, reference compound]
- BBB translocation (in words) (bEnd.3 cell monolayers [2]): translocated the monolayer
- % Base (RFI), Translocation (bEnd.3 cell monolayers [2]; mouse, 24 h, 10 μM): 38.3%
- % Base (RFI), FD4 Permeability (monolayer integrity post-translocation) (bEnd.3 cell monolayers [1]; mouse, 2 h, 10 μM): 8.7%
- IC50 (HIV-1NL4-3; Human immunodeficiency virus 1, TZM-bl, read-out: IC50 HIV inhibition, 100 TCDI50): > 50 µM
- CC50 at 24 h [3]: > 50 µM
- HC50: 50% lytic concentration for human erythrocytes (human erythrocytes; human, 1 h, pH 7.4): >50 µM

Molecule: H-AGILKRW-NH2 [P3, AGILKRW-amide, reference compound]
- CC50 ([3]; 24 h, 6.25–50 μM range): > 50 µM
- HC50: 50% lytic concentration for human erythrocytes (human erythrocytes; 1 h at 37 °C, 0.1–50 μM range): >50 µM

Molecule: H-SGTQEEY-NH2 [P5, SGTQEEY-amide, reference compound]
- CC50 [3]: > 50 µM
- HC50: 50% lytic concentration for human erythrocytes (human erythrocytes; red cells of human, 1 h): >50 µM

Molecule: H-VQQLTKRFSL-NH2 [P1, reference compound]
- CC50 ([3]; 24 h, 6.25–50 μM range): > 50 µM
- HC50: 50% lytic concentration for human erythrocytes (human erythrocytes; 1 h at 37 °C, 0.1–50 μM range): >50 µM

Molecule: MP-P3: mesoporphyrin IX coupled to the N-terminal amino group of peptide P3 (AGILKRW-amide) ({mesoporphyrin IX}-AGILKRW-NH2)
- % Base (RFI), FD4 Permeability (monolayer integrity post-translocation) (bEnd.3 cell monolayers [1]): 10.2%
- IC50 (HIV-1NL4-3; 10 TCDI50 per well (approximate physiological conditions of HIV brain infection), TZM-bl cells, read-out: IC50 HIV inhibition, 10 TCDI50): 1.38 ± 1.1 µM
- IC50 (HIV-1NL4-3; 100 TCDI50 per well, TZM-bl cells, no-light, read-out: IC50 HIV inhibition, 100 TCDI50): 16.1 ± 1.3 µM
- CC50 (bEnd.3 cells): 48.2 µM
- TZM-bl cell viability (in words) (TZM-bl cells): did not alter significantly

Molecule: P4-PP: protoporphyrin IX coupled to the Lys side-chain NH2 group of peptide P4 (AGILKRWK-amide) (AGILKRWK-NH2; also: protoporphyrin IX on a Lys side chain, Lys not given here)
- % Base (RFI), FD4 Permeability (monolayer integrity post-translocation) (bEnd.3 cell monolayers [1]): 9.9%
- CC50 (bEnd.3 cells): > 50 µM

Molecule: P6-MP: mesoporphyrin IX coupled to the C-terminal Lys side chain of peptide P6 (SGTQEEYK-amide) (SGTQEEYK(mesoporphyrin IX)-NH2)
- CC50 (bEnd.3 cells; read-out: CC50: 50% cytotoxic concentration toward bEnd.3 cells, 24 h, 6.25–50 μM range): > 50 µM
- HC50: 50% lytic concentration for human erythrocytes (human erythrocytes; 1 h at 37 °C, 0.1–50 μM range): >50 µM

Molecule: PP-P3: protoporphyrin IX coupled to the N-terminal NH2 group of peptide P3 (AGILKRW-amide) ({protoporphyrin IX}-AGILKRW-NH2)
- % Base (RFI), FD4 Permeability (monolayer integrity post-translocation) (bEnd.3 cell monolayers [1]): 7.2%
- CC50 (bEnd.3 cells): > 50 µM
